Positions count from the first letter of the chain named. pKi: −log10 of the molar value. Activity calls are given as the source filed them. No cut-off for these calls is given here.
How the values were obtained:
[1] = target: Kinesin-like protein KIF11 (Homo sapiens, UniProt P52732, D130V); experiment: Inhibition of human KSP D130V mutant using varying ATP levels in presence of saturating levels of microtubule by Lineweaver-Burke plot
[2] = system: T1, Kinesin-like protein KIF11 (Homo sapiens), P52732 [D130V]; experiment: Competitive inhibition of human KSP D130V mutant with respect to ATP using varying ATP levels in presence of saturating levels of microtubule by Lineweaver-Burke plot
T1 sequence (whole entry): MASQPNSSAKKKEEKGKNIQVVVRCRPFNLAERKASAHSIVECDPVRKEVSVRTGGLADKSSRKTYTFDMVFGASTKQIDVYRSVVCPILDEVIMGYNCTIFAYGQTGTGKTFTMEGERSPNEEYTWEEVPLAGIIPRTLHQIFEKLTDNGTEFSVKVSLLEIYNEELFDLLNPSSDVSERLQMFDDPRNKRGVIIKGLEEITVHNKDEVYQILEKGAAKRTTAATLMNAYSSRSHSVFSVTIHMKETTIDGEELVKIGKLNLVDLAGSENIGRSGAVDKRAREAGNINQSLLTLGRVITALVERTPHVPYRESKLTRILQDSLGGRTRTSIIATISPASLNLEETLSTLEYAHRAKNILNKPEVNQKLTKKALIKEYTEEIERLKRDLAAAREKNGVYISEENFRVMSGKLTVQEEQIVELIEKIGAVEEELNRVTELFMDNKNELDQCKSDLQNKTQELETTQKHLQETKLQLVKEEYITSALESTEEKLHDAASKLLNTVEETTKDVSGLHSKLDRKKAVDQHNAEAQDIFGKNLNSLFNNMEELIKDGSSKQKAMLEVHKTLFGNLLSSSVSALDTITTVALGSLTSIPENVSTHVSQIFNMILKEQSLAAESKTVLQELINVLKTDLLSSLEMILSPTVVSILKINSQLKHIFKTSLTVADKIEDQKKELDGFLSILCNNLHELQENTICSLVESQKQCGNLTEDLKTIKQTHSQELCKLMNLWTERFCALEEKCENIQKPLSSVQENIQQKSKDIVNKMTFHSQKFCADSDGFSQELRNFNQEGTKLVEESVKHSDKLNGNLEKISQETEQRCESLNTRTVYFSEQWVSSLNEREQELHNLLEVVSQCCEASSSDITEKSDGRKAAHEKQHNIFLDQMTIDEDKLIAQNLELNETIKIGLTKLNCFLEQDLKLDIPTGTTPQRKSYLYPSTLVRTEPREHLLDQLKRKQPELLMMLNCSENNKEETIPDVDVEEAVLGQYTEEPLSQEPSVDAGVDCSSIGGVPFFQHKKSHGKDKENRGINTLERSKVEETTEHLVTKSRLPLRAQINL

[3] = system: T2, Kinesin-like protein KIF11 (Homo sapiens), P52732 [A133D]; experiment: Competitive inhibition of human KSP A133D mutant with respect to ATP using varying ATP levels in presence of saturating levels of microtubule by Lineweaver-Burke plot
T2 sequence (whole entry): T1 sequence (whole entry) with V130D, A133D

SMILES | pKi [1] | inhibition [2] | inhibition [3]
NC(=O)Nc1ccc(-c2ccc(C(F)(F)F)cc2)cc1F | 8.00 | Active | Active
O=C1CCc2cc(-c3ccc(C(F)(F)F)cc3)ccc2N1 | 8.66 | Active | Active
